Assay results taken from article PMC5118688 (Scientific Reports, 2016).
≈ marks a conversion by molar mass, not a printed value. Where two headings read alike, the source gives them in different places.

Experiments:
[1] = ref Hua et al. 11; cited from earlier work
[2] = tested on: mAb3C9; test: optimized chemosynthesized antigen-based dcELISA (mAb3C9 and hapten 6-OVA); conditions: for CR (%): Hapten 6-OVA, (IC50 of parathion-methyl/IC50 of pesticide) × 100; for LOD (IC10): mAb3C9, Hapten 6-OVA; for IC50 ± SD: mAb3C9, coating antigen Hapten 6-OVA
Protocol: (§1) The dcELISA procedure was performed as below. First, the plate (Costar, Corning Inc., New York, USA) was coated with coating antigen (100 μL/well in 1 × PBS) for 1 h at 37 °C. Then, the wells were washed four times with PBST (1 × PBS with 0.05% (v/v) Tween-20) and blocked with 2% skim milk (200 μL/well) for 1 h at 37 °C. After washing four times, 50 μL analyte in MeOH-water solution and 50 μL mAb-HRP in PBS were added. The plate was incubated for 1 h at 37 °C and then washed four times before adding TMB solution (100 μL/well). After incubation for 15 min at 37 °C, 50 μL/well of H2SO4 (2 mol/L) was added to stop the reaction, and the absorbance was recorded at 450 nm using the Model 680 plate reader (Bio-Rad, USA).
(§2) 18 kinds of O,O-dimethyl OPs and 6 kinds of O,O-diethyl OPs were purchased from National Standards of China and used for the selectivity and sensitivity study using the optimized dcELISA procedure. […] The IC50 value and detection limit of each OP were calculated. The CR value, which was used to evaluate the selectivity of the method, was calculated using the following equation:

[3] = tested on: mAb4D11; test: optimized mAb4D11-based dcELISA; conditions: mAb4D11-based dcELISA
Protocol: as §1, §2

[4] = tested on: mAb3C9; test: mimotope-based dcELISA (mAb3C9 and M20-GST-BAD/SA-HRP competitor); assay type: binding, mouse; conditions: for CR (%): M20-GST-BAD, (IC50 of parathion-methyl/IC50 of pesticide) × 100; for LOD (IC10): mAb3C9, M20-GST-BAD; for IC50 ± SD: mAb3C9, competitor M20-GST-BAD
Protocol: To develop a mimotope-based dcELISA, the biotinylated mimotope fusion protein was firstly assembled with streptavidin-HRP conjugate (SA-HRP) utilized the high affinity of biotin and streptavidin. The assembly process was just mixing a certain amount of biotinylated mimotope fusion protein with SA-HRP and incubating them at 4 °C overnight before use as an HRP-labeled competitor.
An innovative mimotope-based dcELISA was developed and performed as below. […] TMB solution (100 μL/well) was added and incubated for 15 min at 37 °C.
The optimal condition for mimotope-based dcELISA was optimized as chemosynthesized antigen-based dcELISA. The selectivity and sensitivity of the developed mimotope-based dcELISA for the 24 OPs were also determined under the optimum condition.

[5] = ref Liang et al. 9; cited from earlier work
[6] = tested on: mAb against a generic hapten (3-(4-dimethoxyphosphorothioyloxy phenyl)propanoic acid); conditions: ref Liu et al. 10; cited from earlier work

| SMILES | IC50 [1] [µg/mL] | CR (%) [2] [%] | LOD (IC10) [2] [µg/mL] | IC50 ± SD [2] [µg/mL] | CR (%) [3] [%] | IC50 [3] [µg/mL] | LOD [3] [ng/mL] | CR (%) [4] [%] | LOD (IC10) [4] [µg/mL] | IC50 ± SD [4] [µg/mL] | IC50 [5] [µg/mL] | IC50 [6] [µg/mL] |
| --- | --- | --- | --- | --- | --- | --- | --- | --- | --- | --- | --- | --- |
| CCOP(=S)(OCC)Oc1ccc([N+](=O)[O-])cc1 [Parathion] | 0.0113 (≈ 0.0388 µM) | 0.2 | 0.4663 | 2.4125 ± 0.061 (≈ 8.28 µM) | 8.9 | 0.1636 (≈ 0.562 µM) | 17.5 | 0.2 | 0.4392 | 2.3284 ± 0.0514 (≈ 7.99 µM) | > 1 | – |
| COP(=S)(OC)Oc1nc(Cl)c(Cl)cc1Cl [Chlorpyrifos-methyl] | > 100 | 120.7 | 0.0007 | 0.0039 ± 0.0001 (≈ 0.0121 µM) | 59.4 | 0.0244 (≈ 0.0757 µM) | 5.7 | 122.8 | 0.0009 | 0.0041 ± 0.0002 (≈ 0.0127 µM) | – | 0.81 (≈ 2.51 µM) |
| COP(=S)(OC)Oc1ccc(SC)c(C)c1 [Fenthion] | > 100 | 32.1 | 0.003 | 0.0145 ± 0.0011 (≈ 0.0521 µM) | 303.6 | 0.0048 (≈ 0.0172 µM) | 0.9 | 21.6 | 0.0044 | 0.0234 ± 0.0017 (≈ 0.0841 µM) | 0.7889 (≈ 2.83 µM) | 1.21 (≈ 4.35 µM) |
| COP(=S)(OC)Oc1c(Cl)cc(C)cc1Cl [Tolclofos-methyl] | > 100 | 70.2 | 0.0012 | 0.0066 ± 0.0003 (≈ 0.0219 µM) | 46.2 | 0.0314 (≈ 0.104 µM) | 9.5 | 61.3 | 0.0017 | 0.0083 ± 0.0004 (≈ 0.0276 µM) | – | 1.1 (≈ 3.65 µM) |
| COP(=S)(OC)Oc1ccc([N+](=O)[O-])c(C)c1 [Fenitrothion] | 0.0089 (≈ 0.0321 µM) | 107.1 | 0.0011 | 0.0044 ± 0.0003 (≈ 0.0159 µM) | 180.2 | 0.0081 (≈ 0.0292 µM) | 1.2 | 104.1 | 0.0012 | 0.0049 ± 0.0002 (≈ 0.0177 µM) | 0.324 (≈ 1.17 µM) | 3.54 (≈ 12.8 µM) |
| COP(=S)(OC)Oc1ccc([N+](=O)[O-])cc1 [Parathion-methyl] | 0.0037 (≈ 0.0141 µM) | 100.0 | 0.0009 | 0.0047 ± 0.0003 (≈ 0.0179 µM) | 100.0 | 0.0145 (≈ 0.0551 µM) | 2.0 | 100.0 | 0.0009 | 0.0051 ± 0.0002 (≈ 0.0194 µM) | 0.4389 (≈ 1.67 µM) | 0.58 (≈ 2.2 µM) |
| CCOC(=O)CC(SP(=S)(OC)OC)C(=O)OCC (stereo not drawn) [Malathion] | > 100 | – | – | – | – | – | – | – | – | – | 0.0301 (≈ 0.0911 µM) | 10.47 (≈ 31.7 µM) |
